According to ChEMBL document CHEMBL3045774, “Viridepyronone, a new antifungal 6-substituted 2H-pyran-2-one produced by Trichoderma viride” (2003):
≈ marks a conversion by molar mass, not a printed value. Calls of active or inactive are those of the source. No cut-off for these calls is given here.

How the values were obtained:
Athelia rolfsii [1] = assay: Antifungal activity against Athelia rolfsii assessed as growth inhibition at 6.9 x 10^-2 M after 3 days by paper disk assay relative to control; assay type: functional; settings: Agroathelia rolfsii, 72 h; read-out: GI
Athelia rolfsii [2] = assay: Antifungal activity against Athelia rolfsii assessed as growth inhibition after 3 days; assay type: functional; settings: Agroathelia rolfsii, 72 h
Athelia rolfsii [3] = assay: Antifungal activity against Athelia rolfsii assessed as mycelial growth inhibition at 246 ug/mL after 3 days; assay type: functional, organism-based; settings: Agroathelia rolfsii

## CC(=O)CCCc1cccc(=O)o1 [VIRIDEPYRONONE]
Athelia rolfsii [1]
  inhibition of growth at 69000 µM: 48%
Athelia rolfsii [2]
  MIC: 196 µg/mL (≈ 1090 µM)
Athelia rolfsii [3]
  growth inhibition (GI): Active
